# Counter-ions that a name gives are not always drawn.
row,SMILES,melting point [°C]
1,"COc1ccc(C2CC(C(F)(F)F)n3ncc(C(=O)O)c3N2)cc1 (stereo not shown) [Example 25, 5-(4-methoxyphenyl)-7-(trifluoromethyl)-4,5,6,7-tetrahydropyrazolo[1,5-a]pyrimidine-3-carboxylic acid]",154 to 155
2,"O=C(O)c1cnn2c1NC(c1ccccc1Cl)CC2C(F)(F)F (stereo not shown) [Example 32, 5-(2-chlorophenyl)-7-(trifluoromethyl)-4,5,6,7-tetrahydropyrazolo[1,5-a]pyrimidine-3-carboxylic acid]",177 to 179
3,"O=C(On1nnc2ccccc21)c1cnn2c1N[C@H](c1ccccc1)C[C@@H]2C(F)(F)F (stereo in doubt) [Example 372, 1-(((5-phenyl-7-(trifluoromethyl)-4,5,6,7-tetrahydropyrazolo[1,5-a]pyrimidin-3-yl)carbonyl)oxy)-1H-1,2,3-benzotriazole]",216 to 217
4,"NC(=O)c1cnn2c1N[C@H](c1ccccc1)C[C@@H]2C(F)(F)F (stereo in doubt) [Example 403, 5-phenyl-7-(trifluoromethyl)-4,5,6,7-tetrahydropyrazolo[1,5-a]pyrimidine-3-carboxamide]",277 to 278
5,"O=C(O)c1cnn2c1NC(c1cccc(Cl)c1)CC2C(F)(F)F (stereo not shown) [Example 33, 5-(3-chlorophenyl)-7-(trifluoromethyl)-4,5,6,7-tetrahydropyrazolo[1,5-a]pyrimidine-3-carboxylic acid]",194 to 195
6,"O=C(CNC(=O)c1cnn2c1N[C@H](c1ccccc1)C[C@@H]2C(F)(F)F)c1cc2ccccc2o1 (stereo in doubt) [Example 285, N-(2-(1-benzofuran-2-yl)-2-oxoethyl)-5-phenyl-7-(trifluoromethyl)-4,5,6,7-tetrahydropyrazolo[1,5-a]pyrimidine-3-carboxamide]",244 to 245
7,"COc1ccccc1C1CC(C)(C)n2ncc(C(=O)NC34CC5CC(CC(C5)C3)C4)c2N1 (stereo not shown) [Example 581, N-1-adamantyl-5-(2-methoxyphenyl)-7,7-dimethyl-4,5,6,7-tetrahydropyrazolo[1,5-a]pyrimidine-3-carboxamide]",280 to 282
8,"CCC1(NC(=O)c2cnn3c2NC(c2ccccc2)CC3(C)C)CCCCCC1 (stereo not shown) [Example 622, N-(1-ethylcycloheptyl)-7,7-dimethyl-5-phenyl-4,5,6,7-tetrahydropyrazolo[1,5-a]pyrimidine-3-carboxamide]",129 to 130
9,"CCC(CC)(NC(=O)c1cnn2c1NC(C1CCCCC1)CC2(C)C)c1ccc(C(F)(F)F)cc1 (stereo not shown) [Example 676, 5-cyclohexyl-N-(1-ethyl-1-(4-(trifluoromethyl)phenyl)propyl)-7,7-dimethyl-4,5,6,7-tetrahydropyrazolo[1,5-a]pyrimidine-3-carboxamide]",178.7 to 178.9
10,"CC(C)(Cc1ccc2ccccc2c1)NC(=O)c1cnn2c1NC(c1ccccc1)CC2C(F)(F)F (stereo not shown) [Example 272, N-(1,1-dimethyl-2-(2-naphthyl)ethyl)-5-phenyl-7-(trifluoromethyl)-4,5,6,7-tetrahydropyrazolo[1,5-a]pyrimidine-3-carboxamide]",187 to 188
11,"CCC1(CC)C[C@@H](O)CN1C(=O)c1c(C)nn2c1N[C@@H](c1ccccc1)CC2(C)C (as salt: HCl) [Example 1098, (3R)-5,5-diethyl-1-(((5R)-2,7,7-trimethyl-5-phenyl-4,5,6,7-tetrahydropyrazolo[1,5-a]pyrimidin-3-yl)carbonyl)-3-pyrrolidinol]",140 to 142
12,"CC1(C)CC(c2ccccc2)Nc2c(C(=O)NC3(CO)CCCCC3)cnn21 (stereo not shown) [Example 644, N-(1-(hydroxymethyl)cyclo-hexyl)-7,7-dimethyl-5-phenyl-4,5,6,7-tetrahydropyrazolo[1,5-a]pyrimidine-3-carboxamide]",175 to 176
13,"CC(C)(CC1Cc2ccccc2C1)NC(=O)c1cnn2c1NC(c1ccccc1)CC2C(F)(F)F (stereo not shown) [Example 292, N-(2-(2,3-dihydro-1H-inden-2-yl)-1,1-dimethylethyl)-5-phenyl-7-(trifluoromethyl)-4,5,6,7-tetrahydropyrazolo[1,5-a]pyrimidine-3-carboxamide]",221 to 222
14,"CCC1(CC)C[C@H](OCc2ccccc2)CN1C(=O)c1cnn2c1N[C@H](c1ccccc1)CC2(C)C [Example 1109, (5S)-3-(((4S)-4-(benzyloxy)-2,2-diethy-1-pyrrolidinyl)carbonyl)-7,7-dimethyl-5-phenyl-4,5,6,7-tetrahydropyrazolo[1,5-a]pyrimidine]",116 to 118
15,"CC1CC(c2ccccc2)Nc2c(C(=O)O)cnn21 (stereo not shown) [Example 27, 7-methyl-5-phenyl-4,5,6,7-tetrahydropyrazolo[1,5-a]pyrimidine-3-carboxylic acid]",165 to 167

# Results, then the compound that gave them:
row,melting point [°C],SMILES
1,152 to 154,"CCC(CC)(NC(=O)c1c(C)nn2c1NC(c1ccc(C)cc1)CC2(C)C)c1ccc(C)cc1 (stereo not shown) (as salt: HCl) [Example 973, N-(1-ethyl-1-(4-methylphenyl)propyl)-2,7,7-trimethyl-5-(4-methylphenyl)-4,5,6,7-tetrahydropyrazolo[1,5-a]pyrimidine-3-carboxamide]"
2,150 to 151,"CCC(CC)(Cc1ccc(C)cc1)NC(=O)c1cnn2c1NC(c1ccccc1)CC2(C)C (stereo not shown) [Example 703, N-(1-ethyl-1-(4-methylbenzyl)propyl)-7,7-dimethyl-5-phenyl-4,5,6,7-tetrahydropyrazolo[1,5-a]pyrimidine-3-carboxamide]"
3,183 to 184,"CCc1nn2c(c1C(=O)NC(CC)(CC)c1ccc(Cl)cc1)NC(c1ccccc1)CC2(C)C (stereo not shown) [Example 758, N-(1-(4-chlorophenyl)-1-ethylpropyl)-2-ethyl-7,7-dimethyl-5-phenyl-4,5,6,7-tetrahydropyrazolo[1,5-a]pyrimidine-3-carboxamide]"
4,148 to 149,"CCCC(=O)Oc1ccc(C(CC)(CC)NC(=O)c2cnn3c2NC(c2ccccc2)CC3(C)C)cc1 (stereo not shown) [Example 760, 4-(1-(((7,7-dimethyl-5-phenyl-4,5,6,7-tetrahydropyrazolo[1,5-a]pyrimidin-3-yl)carbonyl)amino)-1-ethylpropyl)phenyl butyrate]"
5,116 to 117,"CNC(=O)c1cnn2c1NC(c1ccccc1)CC2(C)C (stereo not shown) [Example 768, N,7,7-trimethyl-5-phenyl-4,5,6,7-tetrahydropyrazolo[1,5-a]pyrimidine-3-carboxamide]"
6,139 to 140,"CCC(CC)(NC(=O)c1cnn2c1N[C@@H](c1ccccc1)CC2(C)C)c1ccc(C(C)(C)C)cc1 (as salt: HCl) [Example 1052, (5R)-N-(1-(4-tert-butylphenyl)-1-ethylpropyl)-7,7-dimethyl-5-phenyl-4,5,6,7-tetrahydropyrazolo[1,5-a]pyrimidine-3-carboxamide]"
7,182 to 183,"CCC(CC)(NC(=O)c1c(C)nn2c1NC(c1ccccc1)CC2(C)C)c1ccc(F)cc1 (stereo not shown) [Example 761, N-(1-ethyl-1-(4-fluorophenyl)propyl)-2,7,7-trimethyl-5-phenyl-4,5,6,7-tetrahydropyrazolo[1,5-a]pyrimidine-3-carboxamide]"
8,135 to 136,"CCOC(=O)CCc1ccc(C(CC)(CC)NC(=O)c2cnn3c2NC(c2ccccc2)CC3(C)C)cc1 (stereo not shown) [Example 759, ethyl 3-(4-(1-(((7,7-dimethyl-5-phenyl-4,5,6,7-tetrahydropyrazolo[1,5-a]pyrimidin-3-yl)carbonyl)amino)-1-ethylpropyl)phenyl)propanoate]"
9,150 to 151,"Cc1ccc(C(C)(C)NC(=O)c2cnn3c2NC(c2ccccc2)CC3(C)C)cc1 (stereo not shown) (as salt: HCl) [Example 793, 7,7-dimethyl-N-(1-methyl-1-(4-methylphenyl)ethyl)-5-phenyl-4,5,6,7-tetrahydropyrazolo[1,5-a]pyrimidine-3-carboxamide]"
10,88 to 89,"CCC(C)(CC)NC(=O)c1cnn2c1NC(c1ccccc1)CC2(C)C (stereo not shown) [Example 618, N-(1-ethyl-1-methylpropyl)-7,7-dimethyl-5-phenyl-4,5,6,7-tetrahydropyrazolo[1,5-a]pyrimidine-3-carboxamide]"
11,160 to 161,"CCC1(NC(=O)c2cnn3c2NC(c2ccccc2)CC3(C)C)CCC(C)CC1 (stereo not shown) [Example 612, N-(1-ethyl-4-methylcyclohexyl)-7,7-dimethyl-5-phenyl-4,5,6,7-tetrahydropyrazolo[1,5-a]pyrimidine-3-carboxamide]"
12,212 to 214,"CCC(CC)(NC(=O)c1cnn2c1NC(c1ccco1)CC2(C)C)c1ccc(C(F)(F)F)cc1 (stereo not shown) [Example 693, N-(1-ethyl-1-(4-(trifluoro-methyl)phenyl)propyl)-5-(2-furyl)-7,7-dimethyl-4,5,6,7-tetrahydropyrazolo[1,5-a]pyrimidine-3-carboxamide]"
13,132 to 134,"CCC(CC)(c1ccc(C)cc1)c1nnc(-c2c(C)nn3c2N[C@@H](c2ccccc2)CC3(C)C)s1 [Example 1143, (5R)-3-(5-(1-ethyl-1-(4-methylphenyl)propyl)-1,3,4-thiadiazol-2-yl)-2,7,7-trimethyl-5-phenyl-4,5,6,7-tetrahydropyrazolo[1,5-a]pyrimidine]"
14,137 to 138,"CCC(CC)(NC(=O)c1cnn2c1NC(c1ccccc1)CC2(C)C)c1ccc(C)c(C)c1 (stereo not shown) (as salt: HCl) [Example 769, N-(1-(3,4-dimethylphenyl)-1-ethylpropyl)-7,7-dimethyl-5-phenyl-4,5,6,7-tetrahydropyrazolo[1,5-a]pyrimidine-3-carboxamide]"
15,162 to 163,"CCCOC(=O)c1ccc(C(CC)(CC)NC(=O)c2cnn3c2NC(c2ccccc2)CC3(C)C)cc1 (stereo not shown) [Example 762, propyl 4-(1-(((7,7-dimethyl-5-phenyl-4,5,6,7-tetrahydropyrazolo[1,5-a]pyrimidin-3-yl)carbonyl)amino)-1-ethylpropyl)benzoate]"
16,158 to 159,"CCC(CC)(NC(=O)c1cnn2c1NC(c1ccccc1OC)CC2(C)C)c1ccc(C)cc1 (stereo not shown) (as salt: HCl) [Example 964, N-[1-ethyl-1-(4-methylphenyl)propyl]-5-(2-methoxyphenyl)-7,7-dimethyl-4,5,6,7-tetrahydropyrazolo[1,5-a]pyrimidine-3-carboxamide]"

# Reference: patent publication US9447100B2, “Substituted pyrazolo[1,5-A] pyrimidines as calcium receptor modulating agents” (Takeda Pharmaceutical Company Limited, priority 2002, dated 2016)
